Measurements taken from patent US6242439A, “Azetidinone derivatives for the treatment of HCMV infections” (Boehringer Ingelheim (Canada) Ltd., priority 1998, dated 2001).
Like-named read-outs stand apart in the source and are kept apart here.

Key:
[1] = Cytotoxic effects, tetrazolium salt (MTT) metabolic assay; assay type: cell-based; conditions: read-out: TC50 (the source's name)
Method: In conjunction with the appropriate starting materials and intermediates, the procedures of examples 1 to 11 can be used to prepare other compounds of formula 1. Examples of compounds thus prepared are listed in the following Tables I, II and III together with mass spectrum data for the compounds, and results from the assays A and B of example 12. Cytotoxic effects noted as TC50 in the following tables were determined according to the tetrazolium salt (MTT) metabolic assay, F. Denizot and F. Lang, J. Immun. Meth., 1986, 89, 271.

HCMV NO protease = HCMV NO protease (Human cytomegalovirus, UniProt P16753); assay: HCMV NO Protease Assay (inhibition of cleavage of internally quenched fluorogenic peptide substrate); assay type: biochemical; conditions: 100 nM HCMV NO protease, 5 μM substrate, 2.5 h at 30°, pH 8
Method: This particular assay determines the ability of a test compound to inhibit the activity of HCMV protease. More specifically, in the assay described herein, the inhibitory activity of the test compound is evaluated on the basis of its ability to interfere with the HCMV No protease cleavage of a fluorogenic peptide substrate which in turn is based on the maturation cleavage site of the enzyme.
A. HCMV NO Protease Assay
Material & Methods: Fluorescence measurements were recorded on a Perkin-Elmer LS-50B spectrofluorimeter equipped with a plate reader accessory. UV measurements were recorded on a Thermomax® microplate reader from Molecular Devices Corporation, Menlo Park, Calif., USA.
HCMV NO protease was assayed with an internally quenched fluorogenic substrate based on the maturation cleavage site (Abz-[…](3-NO2)R--OH, kcat /KM =260 M^-1 s^-1). The fluorescence increase upon cleavage of the Ala-Ser amide bond was monitored using excitation λ=312 nm (slit 2.5 nm) and emission λ=415 nm (slit 5 nm). A protocol adaptable to a 96-well plate format was designed for the determination of IC50 values of inhibitors. […] After this period, enzymatic hydrolysis of the fluorogenic substrate in the absence of inhibitor led to about a 30% conversion. Quenching was not required before fluorescence measurement since the total scanning time by the plate reader accessory was brief relative to the duration of the reaction. The aqueous incubation buffer contained 50 mM tris(hydroxymethyl)aminomethane.HCl pH 8, 0.5M Na2 SO4, 50 mM NaCl, 0.1 mM EDTA, 1 mM tris(2-carboxyethyl)phosphine.HCl, 3% v/v DMSO and 0.05% w/v casein. The final concentrations of HCMV NO protease (expressed in terms of total monomer concentration) and substrate were 100 nM and 5 μM respectively. IC50 values were obtained through fitting of the inhibition curve to a competitive inhibition model using SAS NLIN procedure. The mode of inhibition was determined by measurements of the initial rates (in cuvettes) at various substrate concentrations in the buffer as described above. The IC50 values listed in the following tables the IC50 were obtained according to this assay.

[2] = system: HCMV (strain AD169, ATCC VR-538); assay: Plaque Reduction Assay (PRA); assay type: cell-based, human cytomegalovirus (HCMV); conditions: Hs-68 cells, approximately 50 PFU HCMV AD169, 8 days at 37°
Method: B. Plaque Reduction Assay (PRA)
Hs-68 cells (ATCC #CRL 1635) were seeded in 12-well plates at 83,000 cells/well in 1 mL of DMEM medium (Gibco Canada Inc.) supplemented with 10% fetal bovine serum (FBS, Gibco Canada Inc.). The plates were incubated for 3 days at 37° to allow the cells to reach 80-90% confluency prior to the assay.
The medium was removed from the cells by aspiration. The cells were then infected with approximately 50 PFU of HCMV (strain AD169, ATCC VR-538) in DMEM medium supplemented with 5% inactivated FBS (assay medium). (DMEM medium is commercially available and has been described by R. Dulbecco et al., Virology 1959, 8, 396.) The virus was allowed to adsorb to cells for 2 h at 37°. Following viral adsorption, the medium was removed from the wells by aspiration. The cells were then incubated with or without 1 mL of appropriate concentrations of test reagent in assay medium. Occasionally, test compounds were added 24 h post-infection. After 4 days of incubation at 37°, the medium was exchanged with fresh medium containing test compound and 4 days later the cells were fixed with 1% aqueous formaldehyde and stained with a 2% violet solution in 20% ethanol in water. Microscopic plaques were counted using a stereomicroscope. Drug effects were calculated as a percent reduction in the number of plaques in the presence of each drug concentration compared to the number observed in the absence of drug. Ganciclovir was used as a positive control in all experiments.

[3] = Human betaherpesvirus 5, AD169, Hs68, 192 h, read-out: EC50

Chain of HCMV NO protease (P16753 1-256): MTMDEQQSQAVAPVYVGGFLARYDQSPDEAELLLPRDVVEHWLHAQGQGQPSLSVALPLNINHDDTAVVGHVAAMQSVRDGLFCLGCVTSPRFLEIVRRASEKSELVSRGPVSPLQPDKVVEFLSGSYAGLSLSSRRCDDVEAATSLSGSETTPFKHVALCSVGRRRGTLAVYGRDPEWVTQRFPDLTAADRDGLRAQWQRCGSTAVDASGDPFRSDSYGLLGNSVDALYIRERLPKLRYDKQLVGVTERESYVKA

Row | Structure (SMILES) | CC50 [1] | IC50 (HCMV NO protease) | EC50 [2, 3] | EC50 ([2]; read-out: EC50) | EC50 [2]
1 | COC(=O)c1ccc(CN(C)C(=O)N2C(=O)C[C@@H]2Cc2ccccc2)cc1 [Entry 131] | > 250 µM | 2.5 µM | 140 µM |  | 
2 | CC(=O)Nc1ccc(CN(C)C(=O)N2C(=O)C[C@@H]2Cc2ccccc2)cc1 [Entry 132] | > 250 µM | 17 µM | 150 µM |  | 
3 | CN(Cc1cccc([N+](=O)[O-])c1)C(=O)N1C(=O)C[C@@H]1Cc1ccccc1 [Entry 133] | > 250 µM | 6.9 µM | 170 µM |  | 
4 | CC(C)c1ccc(CN(C)C(=O)N2C(=O)C[C@@H]2Cc2ccccc2)cc1 [Entry 134] | 200 µM | 6.4 µM | 150 µM |  | 
5 | O=C1C[C@H](Cc2ccccc2)N1C(=O)NCc1ccncc1 [Entry 136, 4(S)-Benzyl-2-oxoazetidine-1-carboxylic acid (4-pyridinylmethyl) amide] | > 250 µM | 13 µM | > 250 µM |  | 
6 | CN(Cc1ccc(SC(F)(F)F)cc1)C(=O)N1C(=O)C[C@@H]1Cc1ccccc1 [Entry 137] | > 250 µM | 6.9 µM | > 250 µM |  | 
7 | CN(Cc1ccc(S(=O)(=O)C(F)(F)F)cc1)C(=O)N1C(=O)C[C@@H]1Cc1ccccc1 [Entry 139] | > 250 µM | 4.3 µM | > 250 µM |  | 
8 | O=C1C[C@H](Cc2ccccc2)N1C(=O)NCc1cccnc1 [Entry 142] | > 250 µM | 9.7 µM | > 250 µM |  | 
9 | CN(Cc1ccc(C#N)cc1)C(=O)N1C(=O)C[C@@H]1Cc1ccccc1 [Entry 145] | > 250 µM | 6.1 µM | 120 µM |  | 
10 | C[C@@H]1C(=O)N(C(=O)Nc2ccccc2)[C@H]1Cc1ccccc1 [Entry 203] | > 250 µM | 0.81 µM | > 250 µM |  | 
11 | C[C@@H]1C(=O)N(C(=O)Nc2ccncc2)[C@H]1Cc1ccccc1 [Entry 204] | > 250 µM | 0.97 µM | 205 µM |  | 
12 | C[C@@H]1C(=O)N(C(=O)NCc2ccccc2)[C@H]1Cc1ccccc1 [Entry 207, 4(S)-Benzyl-3(S)-methyl-2-oxoazetidine-1-carboxylic acid benzylamide] | > 250 µM | 5.3 µM | 140 µM |  | 
13 | C[C@@H]1C(=O)N(C(=O)N(C)Cc2ccccc2)[C@H]1Cc1ccccc1 [Entry 208] | > 250 µM | 4.2 µM | 150 µM |  | 
14 | CC[C@@H](NC(=O)N1C(=O)[C@@H](SC)[C@@H]1Cc1ccccc1)c1ccccc1 [Entry 209, 4(S)-Benzyl-3(S)-(methylthio)-2-oxoazetidine-1-carboxylic acid (1(R)-phenylpropyl)amide] | > 250 µM | 4.7 µM | 27 µM |  | 
15 | O=C1C[C@H](Cc2ccc(I)cc2)N1C(=O)NCc1ccncc1 [Entry 211] | > 100 µM | 8.6 µM | > 100 µM |  | 
16 | CC[C@@H](NC(=O)N1C(=O)C[C@@H]1CCc1ccccc1)c1ccccc1 [Entry 212] | > 250 µM | 4.3 µM | 140 µM |  | 

Row | Structure (SMILES) | CC50 [1] | IC50 (HCMV NO protease) | EC50 [2, 3] | EC50 ([2]; read-out: EC50) | EC50 [2]
17 | CC[C@@H](NC(=O)N1C(=O)C[C@@H]1C(C)C)c1ccccc1 [Entry 213] | > 250 µM | 5.9 µM | 210 µM |  | 
18 | CC[C@H]1CC(=O)N1C(=O)N[C@H](CC)c1ccccc1 [Entry 214] | > 250 µM | 7.6 µM | 180 µM |  | 
19 | CC[C@@H](C)[C@H]1CC(=O)N1C(=O)N[C@H](CC)c1ccccc1 [Entry 216] | > 250 µM | 4.4 µM | 110 µM |  | 
20 | CC[C@@H](NC(=O)N1C(=O)C[C@@H]1[C@@H](C)CC)c1ccccc1 [Entry 217] | > 250 µM | 11 µM | 85 µM |  | 
21 | CN(Cc1ccc(C(F)(F)F)cc1)C(=O)N1C(=O)C[C@@H]1Cc1nccs1 [Entry 218, 4(R)-(2-Thiazolylmethyl)-2-oxoazetidine-1-carboxylic acid N-methyl-N-{{(4-trifluoromethyl)phenyl}methyl}amide] | 178 µM | 5.5 µM |  | 78 µM | 
22 | CN(Cc1ccc(C(F)(F)F)cc1)C(=O)N1C(=O)C[C@@H]1Cc1nc2ccccc2s1 [Entry 219] | > 250 µM | 0.88 µM | 110 µM |  | 
23 | CN(Cc1ccc(C(F)(F)F)cc1)C(=O)N1C(=O)C[C@@H]1Cc1ccco1 [Entry 221] | > 100 µM | 7.1 µM | 59 µM |  | 
24 | CC[C@@H](NC(=O)N1C(=O)C[C@@H]1Cc1nnn(C)n1)c1ccccc1 [Entry 222] | > 148 µM | 5 µM | 125 µM |  | 
25 | CN(Cc1ccc([N+](=O)[O-])cc1)C(=O)N1C(=O)C[C@@H]1Cc1nnn(C)n1 [Entry 224] | > 133 µM | 2.7 µM | 100 µM |  | 
26 | CN(Cc1ccc([N+](=O)[O-])cc1)C(=O)N1C(=O)C[C@@H]1Cc1nc2ccccc2s1 [Entry 225] | > 50 µM | 0.7 µM | 30 µM |  | 
27 | CN(Cc1ccc([N+](=O)[O-])cc1)C(=O)N1C(=O)C[C@@H]1Cc1cccs1 [Entry 226] | > 79 µM | 1.3 µM | 70 µM |  | 
28 | CN(Cc1ccc([N+](=O)[O-])cc1)C(=O)N1C(=O)C[C@@H]1Cc1nccs1 [Entry 227] | > 29 µM | 2.5 µM | > 29 µM |  | 
29 | CN(Cc1ccc(C(F)(F)F)cc1)C(=O)N1C(=O)C[C@@H]1Cc1cccs1 [Entry 228] | > 16 µM | 4.5 µM | > 16 µM |  | 
30 | CN(Cc1ccc([N+](=O)[O-])cc1)C(=O)N1C(=O)C[C@@H]1Cc1ccco1 [Entry 229] | > 261 µM | 3.1 µM | 143 µM |  | 
31 | CN(Cc1ccc(C(F)(F)F)cc1)C(=O)N1C(=O)C[C@@H]1Cc1nccs1 [Entry 231] | > 25 µM | 2.7 µM |  |  | 11 µM
